Measured values published in the NIST ThermoML archive (doi:10.1016/j.fluid.2015.05.002).

Details: Liquid; for mass density: 295 K, 101.33 kPa, Vibrating tube method; for vapor or sublimation pressure: Closed cell (Static) method

CC(C)CC(C)(C)C [2,2,4-trimethylpentane]
Details	mass density [kg/m3]	vapor or sublimation pressure [kPa]
–	690.4	–
388.02 K	–	163
392.98 K	–	184
398.09 K	–	208
403.09 K	–	233
408.08 K	–	262
413.12 K	–	293
418.11 K	–	326
423.15 K	–	362
428.13 K	–	401
433.09 K	–	442
438.15 K	–	488
443.1 K	–	536
448.13 K	–	589
453.09 K	–	644
458.11 K	–	704
463.05 K	–	769
468.08 K	–	837
473.08 K	–	911
483.1 K	–	1072
493.14 K	–	1255
503.18 K	–	1459
508.17 K	–	1571

Cc1ccco1 [2-methylfuran]
Details	mass density [kg/m3]	vapor or sublimation pressure [kPa]
–	916.7	–
353.1 K	–	167
358.07 K	–	194
363.06 K	–	224
368.02 K	–	257
372.97 K	–	294
377.98 K	–	334
382.99 K	–	379
387.96 K	–	427
392.97 K	–	480
397.93 K	–	538
402.98 K	–	600
407.95 K	–	670
412.96 K	–	743
417.96 K	–	823
422.94 K	–	909
427.97 K	–	1001
432.93 K	–	1099
437.97 K	–	1206
442.93 K	–	1319
447.95 K	–	1442
452.97 K	–	1571
457.97 K	–	1710
462.96 K	–	1856
467.96 K	–	2013
472.97 K	–	2179
482.96 K	–	2541
492.93 K	–	2947
502.93 K	–	3403
507.92 K	–	3651

CC1CCCO1 (stereo not given) [2-methyltetrahydrofuran]
Details	mass density [kg/m3]	vapor or sublimation pressure [kPa]
–	851.6	–
368.95 K	–	163
372.89 K	–	181
377.88 K	–	207
382.89 K	–	237
387.86 K	–	268
392.93 K	–	304
398.03 K	–	344
403.02 K	–	386
408.05 K	–	432
413.07 K	–	483
418.08 K	–	538
423.11 K	–	597
428.18 K	–	661
433.16 K	–	730
438.19 K	–	804
443.19 K	–	883
448.17 K	–	968
453.22 K	–	1060
458.19 K	–	1157
463.25 K	–	1262
468.25 K	–	1372
473.2 K	–	1489
483.25 K	–	1746
493.28 K	–	2035
503.24 K	–	2358
508.21 K	–	2532
